Measurements from patent publication US11667651B2, “Aminopyridine derivatives as phosphatidylinositol phosphate kinase inhibitors” (HiberCell, Inc., priority 2017, dated 2023).

Assays:
PIP4K2A = molecular target: T1, PIP4K2A (Homo sapiens, UniProt P48426); assay: ADP-glo kinase assay PIP4K 2A (Table 3); assay type: biochemical; design: made in house; host or cells: E. coli; details: compounds listed under IC50 bins
T1 sequence (P48426 1-406): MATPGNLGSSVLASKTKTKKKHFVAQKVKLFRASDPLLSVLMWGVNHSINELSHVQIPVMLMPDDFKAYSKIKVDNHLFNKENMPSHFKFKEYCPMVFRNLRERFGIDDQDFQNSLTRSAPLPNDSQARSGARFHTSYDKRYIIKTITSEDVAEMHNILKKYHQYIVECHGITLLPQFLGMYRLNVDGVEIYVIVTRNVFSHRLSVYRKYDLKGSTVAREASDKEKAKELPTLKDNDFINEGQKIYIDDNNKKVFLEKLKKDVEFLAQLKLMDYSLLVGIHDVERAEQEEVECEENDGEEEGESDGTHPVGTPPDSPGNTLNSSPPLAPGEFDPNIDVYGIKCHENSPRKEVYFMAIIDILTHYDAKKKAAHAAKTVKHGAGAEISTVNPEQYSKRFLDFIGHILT
Method: Dilution series of the compounds were prepared in DMSO at 100 times the final assay concentration (n1=n0/3 in 10 points). The compounds were further diluted to three times the assay concentration in assay buffer (20 mM MOPS pH 7.2, 25 mM magnesium chloride, 0.005% Tween 20). 6 μL of the diluted compounds were added to a 384 well assay plate followed by 9 μL of a mix consisting of 4 nM PIP4K2A (full length protein, SignalChem) and 100 μM PI(5)P diC8 (Tebu-Bio). Enzyme and compounds were pre-incubated at room temperature for 15 minutes.
Then 3 μL of a solution containing 60 μM ATP (Promega) in assay buffer was added to the wells containing compound and enzyme and mixing was performed by pipetting several times. The reaction was incubated at room temperature for 1 h. Then 18 μL of ADP-Glo™ Reagent (Promega) was added to stop the kinase reaction and deplete the unconsumed ATP, mixing was performed by pipetting several times. The plate was incubated at room temperature for 40 minutes before addition of 36 μL of Kinase Detection Reagent (Promega) to convert ADP to ATP and introduce luciferase and luciferin to detect ATP. The reaction was incubated at room temperature for 40 minutes before the luminescence was measured in a in a Victor 3V 1420 multilabel counter (Perkin Elmer).
Percent inhibition of the compounds as compared to dimethyl sulfoxide treated control samples was calculated. Compound concentration versus percent inhibition were fitted to generate IC50 values. […]

PIP4K2B = molecular target: T2, PIP4K2B (Homo sapiens, UniProt P78356); assay: Trans-FI P kinase assay PIP4K2B (Table 4); assay type: biochemical; details: compounds listed under IC50 bins; read-out: Trans-FI P kinase assays: PIP4K2B IC50
T2 construct: made in house; host or cells: E. coli
T2 sequence (P78356 1-416): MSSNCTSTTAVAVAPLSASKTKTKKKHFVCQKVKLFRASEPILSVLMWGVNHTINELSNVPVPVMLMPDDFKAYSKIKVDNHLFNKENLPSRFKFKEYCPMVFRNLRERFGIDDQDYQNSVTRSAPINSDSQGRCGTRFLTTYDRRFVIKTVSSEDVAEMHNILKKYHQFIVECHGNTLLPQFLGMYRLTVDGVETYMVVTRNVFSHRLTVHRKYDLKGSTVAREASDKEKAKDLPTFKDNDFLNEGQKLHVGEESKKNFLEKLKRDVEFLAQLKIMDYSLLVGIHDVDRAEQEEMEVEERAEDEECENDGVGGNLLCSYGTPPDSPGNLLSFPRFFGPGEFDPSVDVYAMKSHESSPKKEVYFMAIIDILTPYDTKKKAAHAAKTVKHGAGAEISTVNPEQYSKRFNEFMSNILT
How it was run: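 Transcreener FI detection (Ex 584/Em 623) of GDP, converted via calibration curve, gives IC50 from residual activity versus log concentration (highest 4.8 μM). Reaction: 80 μM PI5P plus DOPE carrier, 100 μM GTP, 5 nM GST-tagged enzyme, pH 7.3 HEPES with MgCl2 and 5% DMSO, 2 h after 1 h enzyme-compound preincubation at 27° C.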

CN(C)C/C=C/C(=O)Nc1ccc(C(=O)Nc2cncc(Nc3ccc(-c4ccc(N5CCCC5=O)cc4)cn3)c2)cc1 [Example 167, (E)-4-(4-(dimethylamino)but-2-enamido)-N-(5-((5-(4-(2-oxopyrrolidin-1-yl)phenyl)pyridin-2-yl)amino)pyridin-3-yl)benzamide]
IC50 (PIP4K2A): 10 to 100 nM
IC50 (PIP4K2B): 10 to 100 nM

CC1(C)C[C@H]2COc3ncc(Nc4ccc(-c5ccc(N6CCCC6=O)cc5)cn4)cc3N2C1=O [Example 255, (S)-8,8-dimethyl-2-((5-(4-(2-oxopyrrolidin-1-yl)phenyl)pyridin-2-yl)amino)-6,6a,7,8-tetrahydro-9H-pyrido[2,3-b]pyrrolo[1,2-d][1,4]oxazin-9-one]
IC50 (PIP4K2A): 1 to 10 nM
IC50 (PIP4K2B): 10 to 100 nM

O=C1CCCN1c1ccc(-c2cnc(Nc3cnc4c(c3)N3C(=O)CC[C@H]3CO4)cc2C2CC2)cc1F [Example 182, (S)-2-((4-cyclopropyl-5-(3-fluoro-4-(2-oxopyrrolidin-1-yl)phenyl)pyridin-2-yl)amino)-6,6a,7,8-tetrahydro-9H-pyrido[2,3-b]pyrrolo[1,2-d][1,4]oxazin-9-one]
IC50 (PIP4K2A): 1 to 10 nM
IC50 (PIP4K2B): 10 to 100 nM

Cc1nc(Nc2cnc3c(c2)N2C(=O)C4(CC4)C[C@H]2CO3)ncc1-c1ccc(N2CCCC2=O)cc1 [Example 201, (S)-2′-((4-methyl-5-(4-(2-oxopyrrolidin-1-yl)phenyl)pyrimidin-2-yl)amino)-6a′,7′-dihydro-6′H,9′H-spiro[cyclopropane-1,8′-pyrido[2,3-b]pyrrolo[1,2-d][1,4]oxazin]-9′-one]
IC50 (PIP4K2A): 1 to 10 nM
IC50 (PIP4K2B): 1 to 10 nM

COc1cc(Nc2cnc3c(c2)N2C(=O)C4(CC4)C[C@H]2CO3)ncc1-c1ccc(N2CCCC2=O)cc1 [Example 212, (S)-2′-((4-methoxy-5-(4-(2-oxopyrrolidin-1-yl)phenyl)pyridin-2-yl)amino)-6a′,7′-dihydro-6′H,9′H-spiro[cyclopropane-1,8′-pyrido[2,3-b]pyrrolo[1,2-d][1,4]oxazin]-9′-one]
IC50 (PIP4K2A): ≤ 1 nM
IC50 (PIP4K2B): 1 to 10 nM

COc1nc(Nc2cnc3c(c2)N2C(=O)C4(CC4)C[C@H]2CO3)ncc1-c1ccc(N2CCCC2=O)cc1 [Example 200, (S)-2′-((4-methoxy-5-(4-(2-oxopyrrolidin-1-yl)phenyl)pyrimidin-2-yl)amino)-6a′,7′-dihydro-6′H,9′H-spiro[cyclopropane-1,8′-pyrido[2,3-b]pyrrolo[1,2-d][1,4]oxazin]-9′-one]
IC50 (PIP4K2A): ≤ 1 nM
IC50 (PIP4K2B): 1 to 10 nM

CN(C)CCCC(=O)Nc1ccc(C(=O)Nc2cncc(Nc3ccc(-c4ccc(N5CCCC5=O)cc4)cn3)c2)cc1 [Example 168, 4-(4-(dimethylamino)butanamido)-N-(5-((5-(4-(2-oxopyrrolidin-1-yl)phenyl)pyridin-2-yl)amino)pyridin-3-yl)benzamide]
IC50 (PIP4K2A): 10 to 100 nM
IC50 (PIP4K2B): 10 to 100 nM

COc1nc(Nc2cnc3c(c2)N2C(=O)CC[C@H]2CO3)ncc1-c1ccc(N2CCCC2=O)cc1 [Example 195, (S)-2-((4-methoxy-5-(4-(2-oxopyrrolidin-1-yl)phenyl)pyrimidin-2-yl)amino)-6,6a,7,8-tetrahydro-9H-pyrido[2,3-b]pyrrolo[1,2-d][1,4]oxazin-9-one]
IC50 (PIP4K2A): ≤ 1 nM
IC50 (PIP4K2B): 1 to 10 nM

O=C1CCCN1c1ccc(-c2ccc(Nc3cnc4c(c3)N3C(=O)CC[C@@H]3CO4)nc2)cc1F [Example 173, (R)-2-((5-(3-fluoro-4-(2-oxopyrrolidin-1-yl)phenyl)pyridin-2-yl)amino)-6,6a,7,8-tetrahydro-9H-pyrido[2,3-b]pyrrolo[1,2-d][1,4]oxazin-9-one]
IC50 (PIP4K2A): 10 to 100 nM
IC50 (PIP4K2B): 10 to 100 nM

CC1CN(C(=O)Nc2cncc(Nc3ccc(-c4ccc(N5CCCC5=O)cc4)cn3)c2)CCO1 (centres unmarked) [Example 250, 2-methyl-N-(5-((5-(4-(2-oxopyrrolidin-1-yl)phenyl)pyridin-2-yl)amino)pyridin-3-yl)morpholine-4-carboxamide]
IC50 (PIP4K2A): 100 to 1000 nM
IC50 (PIP4K2B): 10 to 100 nM

CC1C[C@H]2COc3ncc(Nc4ccc(-c5ccc(N6CCCC6=O)cc5)cn4)cc3N2C1=O (stereo partly drawn) [Example 259, (6aS)-8-methyl-2-((5-(4-(2-oxopyrrolidin-1-yl)phenyl)pyridin-2-yl)amino)-6,6a,7,8-tetrahydro-9H-pyrido[2,3-b]pyrrolo[1,2-d][1,4]oxazin-9-one]
IC50 (PIP4K2A): 10 to 100 nM
IC50 (PIP4K2B): 10 to 100 nM

O=C([C@H]1CCOC1)N1CCN(c2cncc(Nc3ccc(-c4ccc(N5CCCC5=O)cc4)cn3)c2)CC1 [Example 245, (S)-1-(4-(6-((5-(4-(tetrahydrofuran-3-carbonyl)piperazin-1-yl)pyridin-3-yl)amino)pyridin-3-yl)phenyl)pyrrolidin-2-one]
IC50 (PIP4K2A): 100 to 1000 nM
IC50 (PIP4K2B): 10 to 100 nM

O=C1NCCN1c1cncc(Nc2ccc(-c3ccc(N4CCCC4=O)c(F)c3)cn2)c1 [Example 272, 1-(5-((5-(3-fluoro-4-(2-oxopyrrolidin-1-yl)phenyl)pyridin-2-yl)amino)pyridin-3-yl)imidazolidin-2-one]
IC50 (PIP4K2A): 100 to 1000 nM
IC50 (PIP4K2B): 10 to 100 nM

C[C@@]1(O)C[C@H]2COc3ncc(Nc4ccc(-c5ccc(N6CCCC6=O)cc5)cn4)cc3N2C1=O [Example 271, (6aS,8R)-8-hydroxy-8-methyl-2-((5-(4-(2-oxopyrrolidin-1-yl)phenyl)pyridin-2-yl)amino)-6,6a,7,8-tetrahydro-9H-pyrido[2,3-b]pyrrolo[1,2-d][1,4]oxazin-9-one]
IC50 (PIP4K2A): 10 to 100 nM
IC50 (PIP4K2B): 10 to 100 nM

CN(C)C/C=C/C(=O)NCC(=O)Nc1ccc(CN2CCN(c3cncc(Nc4ccc(-c5ccc(N6CCCC6=O)cc5)cn4)c3)C2=O)cc1 [Example 172, (E)-4-(dimethylamino)-N-(2-oxo-2-((4-((2-oxo-3-(5-((5-(4-(2-oxopyrrolidin-1-yl)phenyl)pyridin-2-yl)amino)pyridin-3-yl)imidazolidin-1-yl)methyl)phenyl)amino)ethyl)but-2-enamide]
IC50 (PIP4K2A): 1 to 10 nM
IC50 (PIP4K2B): 10 to 100 nM

CC(C)(N)c1cc(Nc2cnc3c(c2)N2C(=O)CC[C@H]2CO3)ncc1-c1ccc(N2CCCC2=O)cc1F [Example 266, (S)-2-((4-(2-aminopropan-2-yl)-5-(2-fluoro-4-(2-oxopyrrolidin-1-yl)phenyl)pyridin-2-yl)amino)-6,6a,7,8-tetrahydro-9H-pyrido[2,3-b]pyrrolo[1,2-d][1,4]oxazin-9-one]
IC50 (PIP4K2A): 1 to 10 nM
IC50 (PIP4K2B): 10 to 100 nM

CC1CN(C(=O)Nc2cncc(Nc3ccc(-c4ccc(N5CCCC5=O)cc4)cn3)c2)CCN1 (centres unmarked) [Example 256, 3-methyl-N-(5-((5-(4-(2-oxopyrrolidin-1-yl)phenyl)pyridin-2-yl)amino)pyridin-3-yl)piperazine-1-carboxamide]
IC50 (PIP4K2A): 10 to 100 nM
IC50 (PIP4K2B): 10 to 100 nM

Cc1cc(N2CCCC2=O)ccc1-c1cnc(Nc2cnc3c(c2)N2C(=O)C4(CC4)C[C@H]2CO3)nc1 [Example 203, (S)-2′-((5-(2-methyl-4-(2-oxopyrrolidin-1-yl)phenyl)pyrimidin-2-yl)amino)-6a′,7′-dihydro-6′H,9′H-spiro[cyclopropane-1,8′-pyrido[2,3-b]pyrrolo[1,2-d][1,4]oxazin]-9′-one]
IC50 (PIP4K2A): 1 to 10 nM
IC50 (PIP4K2B): 1 to 10 nM

O=C1CCCN1c1ccc(-c2cnc(Nc3cnc4c(c3)N3C(=O)C5(CC5)C[C@H]3CO4)cc2C2CC2)cc1 [Example 211, (S)-2′-((4-cyclopropyl-5-(4-(2-oxopyrrolidin-1-yl)phenyl)pyridin-2-yl)amino)-6a′,7′-dihydro-6′H,9′H-spiro[cyclopropane-1,8′-pyrido[2,3-b]pyrrolo[1,2-d][1,4]oxazin]-9′-one]
IC50 (PIP4K2A): ≤ 1 nM
IC50 (PIP4K2B): 1 to 10 nM
